Reference: US20100266674A1, “L-ODDC PRODRUGS FOR CANCER” (UNIVERSITY OF GEORGIA RESEARCH FOUNDATION, INC., priority 2006, published 2010)

Columns and labels:
[1] = system: A549 non-small cell lung cancer cell line; assay: SRB chemosensitivity (cytotoxicity) assay, A549; format: cell-based; conditions: SRB test, 72 h incubation, mean of 3 experiments
Method: (§1) The compounds were evaluated on two non-small cell lung cancer cell lines (A549 and SW1573). These cell lines were characterized for deoxynucleoside analog sensitivity and activity of dCK previously.
(§2) The chemosensitivity assay used in this study was the sulforhodamineB (SRB) assay as described earlier (Keepers et al, Eur J. Cancer, 1991; Rubinstein et al, J. Natl. Cancer Inst., 1990). Cells were transferred to 96 wells plates on day 0; on day 1 a serial dilution of the drug was made from a stock solution and added to the cells in triplicate. After an incubation period of 72 h the cells were fixed for 1 hr at 4° C. with 50% trichloroacetic acid washed, air-dried and stained with 0.4% SRB. The optical density was measured at 492 nm with a microplate reader (Tecan, Salzburg, Austria).
(§3) The results were expressed as percentage of control growth: […]
(§4) The data were plotted in a graph to give a growth inhibition curve. From this growth inhibition curve the […] value was determined by interpolating at the 50% growth level. […] LogP was estimated using ChemDraw 8.0 ultra. IC50s are expressed as mean of 3 experiments.

[2] = system: SW1573 non-small cell lung cancer cell line; assay: SRB chemosensitivity (cytotoxicity) assay, SW1573; format: cell-based; conditions: SRB test, 72 h incubation, mean of 3 experiments
Method: as §1, §2, §3, §4

[3] = system: Panc-02 pancreatic cancer cell line; assay: SRB cytotoxicity assay, Panc-02; format: cell-based
Method: (§5) Sensitivity to four prodrugs with linear aliphatic chains of different length was determined by the SRB cytotoxicity assay^[12], the IC50 value of the drug was determined in the different cell lines by interpolating the growth inhibition curves. The tests were performed on the BxPC-3 and Panc-02 pancreatic cancer cell lines.

A549 = assay: SRB assay with addition of dipyridamole (role of ENT transport), A549; format: cell-based; conditions: A549, dipyridamole added to the cells
Description: These cell lines were chosen because they had been characterized earlier for sensitivity to gemcitabine and for the activity of the rate-limiting enzyme in the activation of gemcitabine and troxacitabine, deoxycytidine kinase (dCK); […] In addition, non-small cell lung cancer is routinely being treated with gemcitabine containing regimens. […] It should be noted that it is unlikely that they are being phosphorylated as prodrugs due to their steric hindrance. […] In a cell line we tested whether transport (ENT) would play a role by addition of dipyridamole to the cells. In A549 dipyridamole gave a 2-fold increase in the IC50, but this was not observed for the prodrugs. […] It is likely that these cycloalkyl and aromatic moieties at the N4 position of compounds 6l-t may render these compounds poor substrates of intracellular amidases. We therefore speculate that the amidase-catalyzed hydrolysis of the prodrugs may play an important role, allowing the release of troxacitabine into the intracellular compartment for activation (the triphosphate). The better activity profile of prodrugs 6h-k could have been the result of an increased uptake due to the high lipophilicity as well as of a high rate of amidase-catalyzed cleavage of the linear aliphatic derivatives intracellularly.

[4] = cited from earlier work
[5] = system: BxPC-3 pancreatic cancer cell line; assay: SRB cytotoxicity assay, BxPC-3; format: cell-based; conditions: BxPC-3 (BxPC3) pancreatic cancer cell line
Method: as §5

SMILES	IC50 ([1]; Homo sapiens, A549)	IC50 ([2]; Homo sapiens, SW1573)	also measured
O=c1nc(NC2CCCC2)ccn1[C@@H]1CO[C@H](CO)O1 [Compound 6m, (−)-(2S,4S)-1-[2-(Hydroxymethyl)-1,3-dioxolan-4-yl]-4-N-cyclopentyl-cytosine]	2.97 µM	8.8 µM	
O=C(Nc1ccn([C@@H]2CO[C@H](CO)O2)c(=O)n1)c1ccccc1 [Compound 6o, (−)-(2S,4S)-1-[2-(Hydroxymethyl)-1,3-dioxolan-4-yl]-4-N-benzoyl-cytosine]	8.53 µM	13.7 µM	
CCCC(=O)Nc1ccn([C@@H]2CO[C@H](CO)O2)c(=O)n1 [Compound 6c, (−)-(2S,4S)-1-[2-(Hydroxymethyl)-1,3-dioxolan-4-yl]-4-N-butirryl-cytosine]			IC50 [1]: 6.6 µM; IC50 [2]: 8.07 µM
CCCCC(=O)Nc1ccn([C@@H]2CO[C@H](CO)O2)c(=O)n1 [Compound 6e, (−)-(2S,4S)-1-[2-(Hydroxymethyl)-1,3-dioxolan-4-yl]-4-N-valeryl-cytosine]	5.23 µM	9.13 µM	
O=C(Nc1ccn([C@@H]2CO[C@H](CO)O2)c(=O)n1)c1ccc(F)cc1 [Compound 6p, (−)-(2S,4S)-1-[2-(Hydroxymethyl)-1,3-dioxolan-4-yl]-4-N-(p-fluorobenzoyl)-cytosine]	8.67 µM	15.3 µM	
CCCCCCC(=O)Nc1ccn([C@@H]2CO[C@H](CO)O2)c(=O)n1 [Compound 6g, (−)-(2S,4S)-1-[2-(Hydroxymethyl)-1,3-dioxolan-4-yl]-4-N-heptanoyl-cytosine]	1.04 µM	2.4 µM	
CCCCCCCCCC(=O)Nc1ccn([C@@H]2CO[C@H](CO)O2)c(=O)n1 [Compound 6i, (−)-(2S,4S)-1-[2-(Hydroxymethyl)-1,3-dioxolan-4-yl]-4-N-decanoyl-cytosine]	0.024 µM	0.04 µM	enhancement of sensitivity compared to troxacitabine [3]: 1400 fold; melting point: 141 to 143 °C
O=c1nc(NC2CCCCC2)ccn1[C@@H]1CO[C@H](CO)O1 [Compound 6n, (−)-(2S,4S)-1-[2-(Hydroxymethyl)-1,3-dioxolan-4-yl]-4-N-cyclohexyl-cytosine]	7.37 µM	14 µM	
Nc1ccn([C@@H]2CO[C@H](CO)O2)c(=O)n1 [Troxacitabine, (−)-2′-deoxy-3′-oxacytidine, reference compound]	0.68 µM	2.3 µM	increase in the IC50 by dipyridamole (A549): 2 fold; plasma half-life [4]: 82 h
CC(=O)Nc1ccn([C@@H]2CO[C@H](CO)O2)c(=O)n1 [Compound 6a, (−)-(2S,4S)-1-[2-(Hydroxymethyl)-1,3-dioxolan-4-yl]-4-N-acetyl-cytosine]	6.87 µM	10.7 µM	
Nc1ccn([C@@H]2O[C@H](CO)[C@@H](O)C2(F)F)c(=O)n1 [Gemcitabine, reference compound]	0.013 µM	0.008 µM	
O=C(Nc1ccn([C@@H]2CO[C@H](CO)O2)c(=O)n1)c1ccc(Br)cc1 [Compound 6r, (−)-(2S,4S)-1-[2-(Hydroxymethyl)-1,3-dioxolan-4-yl]-4-N-(p-bromobenzoyl)-cytosine]	4.53 µM	8.87 µM	
CCCCCCCCCCCCCCCC(=O)Nc1ccn([C@@H]2CO[C@H](CO)O2)c(=O)n1 [Compound 6k, (−)-(2S,4S)-1-[2-(Hydroxymethyl)-1,3-dioxolan-4-yl]-4-N-palmitoyl-cytosine]	0.004 µM	0.02 µM	
Nc1ccn([C@@H]2O[C@H](CO)[C@@H](O)[C@@H]2O)c(=O)n1 [Cytarabine, reference compound]	0.62 µM	10.5 µM	
O=C(Nc1ccn([C@@H]2CO[C@H](CO)O2)c(=O)n1)c1ccc(Cl)cc1 [Compound 6q, (−)-(2S,4S)-1-[2-(Hydroxymethyl)-1,3-dioxolan-4-yl]-4-N-(p-chlorobenzoyl)-cytosine]	0.41 µM	2.77 µM	
COc1ccc(C(=O)Nc2ccn([C@@H]3CO[C@H](CO)O3)c(=O)n2)cc1 [Compound 6s, (−)-(2S,4S)-1-[2-(Hydroxymethyl)-1,3-dioxolan-4-yl]-4-N-(p-methoxybenzoyl)-cytosine]	3.5 µM	10 µM	
O=c1nc(NC2CC2)ccn1[C@@H]1CO[C@H](CO)O1 [Compound 6l, (−)-(2SAS)-1-[2-(Hydroxymethyl)-1,3-dioxolan-4-yl]-4-N-cyclopropyl-cytosine]			IC50 [1]: 18.7 µM; IC50 [2]: 22 µM
O=C(Nc1ccn([C@@H]2CO[C@H](CO)O2)c(=O)n1)c1ccc(Cl)cc1Cl [Compound 6t, (−)-(2S,4S)-1-[2-(Hydroxymethyl)-1,3-dioxolan-4-yl]-4-N-(2,4-dichlorobenzoyl)-cytosine]	9.83 µM	14.3 µM	melting point: 185 to 187 °C
CCCCCCCCC(=O)Nc1ccn([C@@H]2CO[C@H](CO)O2)c(=O)n1 [Compound 6h, (−)-(2S,4S)-1-[2-(Hydroxymethyl)-1,3-dioxolan-4-yl]-4-N-nonanoyl-cytosine]	0.046 µM	0.276 µM	
CCCCCCCCCCCCNc1ccn([C@@H]2CO[C@H](CO)O2)c(=O)n1 [Compound 6j, (−)-(2S,4S)-1-[2-(Hydroxymethyl)-1,3-dioxolan-4-yl]-4-N-lauryl-cytosine]	0.015 µM	0.033 µM	decrease in IC50 / enhancement of sensitivity compared to troxacitabine [5]: 160 fold
